Where “and” joins values, the source holds several entries; their conditions need not be identical. Identical values can stand only once. Toxic doses and inconclusive results are not listed. Cut-off read from the data, not from the text of the source: active = T/C of 150% or more; inactive = T/C below 125%.
Tested on: L1210 leukemia ip in BDF1 mice, survival T/C
Assay: NCI In Vivo Anticancer Drug Screen. Data for tumor model L1210 Leukemia (intraperitoneal) in B6D2F1 (BDF1) mice
Conditions: endpoint: mean survival time, higher = longer survival
How it was run: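 Value reflects the ratio of survival in compound-treated mice to survival in vehicle-treated controls, with both groups carrying the same transplanted tumor.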

[1] = dose: 75.0 mg/kg/injection, schedule: Q01DX001 (ip), vehicle: saline
[2] = dose: 150.0 mg/kg/injection, schedule: Q01DX001 (ip), vehicle: saline
[3] = dose: 100.0 mg/kg/injection, schedule: Q04DX002 (ip), vehicle: saline
[4] = dose: 100.0 mg/kg/injection, schedule: Q04DX003 (ip), vehicle: saline
[5] = dose: 200.0 mg/kg/injection, schedule: Q04DX002 (ip), vehicle: saline
[6] = dose: 200.0 mg/kg/injection, schedule: Q04DX003 (ip), vehicle: saline
[7] = dose: 400.0 mg/kg/injection, schedule: Q04DX002 (ip), vehicle: saline
[8] = dose: 100.0 mg/kg/injection, schedule: Q04DX002 (ip), vehicle: Klucel (hydroxypropylcellulose) (HPC)
[9] = dose: 200.0 mg/kg/injection, schedule: Q04DX002 (ip), vehicle: Klucel (hydroxypropylcellulose) (HPC)
[10] = dose: 400.0 mg/kg/injection, schedule: Q04DX002 (ip), vehicle: Klucel (hydroxypropylcellulose) (HPC)
[11] = dose: 100.0 mg/kg/injection, schedule: Q01DX009 (ip), vehicle: Klucel (hydroxypropylcellulose) (HPC)
[12] = dose: 200.0 mg/kg/injection, schedule: Q01DX009 (ip), vehicle: Klucel (hydroxypropylcellulose) (HPC)
[13] = dose: 100.0 mg/kg/injection, schedule: Q04DX003 (ip), vehicle: Klucel (hydroxypropylcellulose) (HPC)
[14] = dose: 200.0 mg/kg/injection, schedule: Q04DX003 (ip), vehicle: Klucel (hydroxypropylcellulose) (HPC)
[15] = dose: 400.0 mg/kg/injection, schedule: Q01DX009 (ip), vehicle: Klucel (hydroxypropylcellulose) (HPC)
[16] = dose: 400.0 mg/kg/injection, schedule: Q04DX003 (ip), vehicle: Klucel (hydroxypropylcellulose) (HPC)

Measured: T/C

CN1C2C=C(c3ccccc3)C(Br)C1CC2 (centres undefined)
inactive: dose: 20.0 mg/kg/injection, schedule: Q04DX003 (ip), vehicle: saline with Tween-80 95 % of control | dose: 40.0 mg/kg/injection, schedule: Q04DX003 (ip), vehicle: saline with Tween-80 97 % of control | [1] 102 % of control | [2] 98 % of control

C1OCC2OC12 (centres undefined)
inactive: dose: 100.0 mg/kg/injection, schedule: Q01DX009 (ip), vehicle: saline 97 % of control and 88 % of control | [3] 97 % of control and 102 % of control | [4] 101 % of control | dose: 200.0 mg/kg/injection, schedule: Q01DX009 (ip), vehicle: saline 100 % of control and 87 % of control | [5] 100 % of control and 101 % of control | [6] 109 % of control | dose: 400.0 mg/kg/injection, schedule: Q01DX009 (ip), vehicle: saline 105 % of control and 87 % of control | [7] 104 % of control and 111 % of control | dose: 400.0 mg/kg/injection, schedule: Q04DX003 (ip), vehicle: saline 101 % of control

CCCC(C(=O)OCCN1CCCC12CCCCC2)C1CCCC1 (centres undefined)
inactive: dose: 13.0 mg/kg/injection, schedule: Q01DX Z (ip), vehicle: methylcellulose (MC) 92 % of control | dose: 20.0 mg/kg/injection, schedule: Q01DX Z (ip), vehicle: methylcellulose (MC) 91 % of control | dose: 30.0 mg/kg/injection, schedule: Q01DX Z (ip), vehicle: methylcellulose (MC) 88 % of control

O=c1[nH]cnc2c1nnn2C1CC(CO)C(O)C1O (centres undefined)
inactive: dose: 50.0 mg/kg/injection, schedule: Q04DX003 (ip), vehicle: saline 92 % of control | [4] 92 % of control | [6] 96 % of control

C=CC[Si](C)(C)N1CC1
inactive: dose: 12.5 mg/kg/injection, schedule: Q01DX001 (ip), vehicle: carboxymethylcellulose (CMC) 108 % of control

COc1ccc(CCNC(=O)Cc2cc(OCc3ccccc3)c(OC)cc2[N+](=O)[O-])cc1OC
inactive: dose: 100.0 mg/kg/injection, schedule: Q04DX003 (ip), vehicle: water 90 % of control | dose: 200.0 mg/kg/injection, schedule: Q01DX001 (ip), vehicle: water 91 % of control | dose: 200.0 mg/kg/injection, schedule: Q04DX003 (ip), vehicle: water 91 % of control | dose: 400.0 mg/kg/injection, schedule: Q01DX001 (ip), vehicle: water 96 % of control | dose: 400.0 mg/kg/injection, schedule: Q04DX003 (ip), vehicle: water 91 % of control

COCCOCCOc1ccc(Cl)cc1
inactive: [3] 92 % of control | [5] 107 % of control | [7] 88 % of control

CCCCS(=O)(=O)N1CCC(C)CC1
inactive: [8] 87 % of control | [9] 91 % of control | [10] 94 % of control

CCCCCCCCCCCCCCCC(=O)Oc1ccc(/C(CC)=C(/CC)c2ccc(OC(=O)CCCCCCCCCCCCCCC)cc2)cc1
inactive: dose: 100.0 mg/kg/injection, schedule: Q04DX003 (ip), vehicle: saline with Tween-80 89 % of control | dose: 200.0 mg/kg/injection, schedule: Q01DX009 (ip), vehicle: saline with Tween-80 91 % of control | dose: 200.0 mg/kg/injection, schedule: Q04DX003 (ip), vehicle: saline with Tween-80 100 % of control | dose: 400.0 mg/kg/injection, schedule: Q01DX009 (ip), vehicle: saline with Tween-80 91 % of control | dose: 400.0 mg/kg/injection, schedule: Q04DX003 (ip), vehicle: saline with Tween-80 89 % of control

COC(=O)C1C(C(=O)OC)C2(Cl)C(Cl)=C(Cl)C1(Cl)C2(Cl)Cl (centres undefined)
inactive: [11] 98 % of control | [12] 104 % of control

CCOC(=O)C1(c2ccccc2)CCCNC1=O (centres undefined)
inactive: [3] 107 % of control | [5] 89 % of control | [7] 100 % of control

Fc1c(F)c(F)c(Oc2c(F)c(F)[c]([Sn]([c]3c(F)c(F)c(Oc4c(F)c(F)c(F)c(F)c4F)c(F)c3F)([c]3c(F)c(F)c(Oc4c(F)c(F)c(F)c(F)c4F)c(F)c3F)[c]3c(F)c(F)c(Oc4c(F)c(F)c(F)c(F)c4F)c(F)c3F)c(F)c2F)c(F)c1F
inactive: [11] 104 % of control | [13] 103 % of control | [12] 105 % of control | [14] 102 % of control | [15] 104 % of control | [16] 102 % of control

CCCCSC(=O)C(C)O (centres undefined)
inactive: dose: 100.0 mg/kg/injection, schedule: Q04DX002 (ip), vehicle: saline with Tween-80 99 % of control | dose: 200.0 mg/kg/injection, schedule: Q04DX002 (ip), vehicle: saline with Tween-80 89 % of control | dose: 400.0 mg/kg/injection, schedule: Q04DX002 (ip), vehicle: saline with Tween-80 86 % of control

CC(=O)Nc1ccc2c(c1)-c1ccc(F)cc1C2
inactive: dose: 100.0 mg/kg/injection, schedule: Q01DX001 (ip), vehicle: carboxymethylcellulose (CMC) 94 % of control | dose: 200.0 mg/kg/injection, schedule: Q01DX001 (ip), vehicle: carboxymethylcellulose (CMC) 96 % of control | dose: 400.0 mg/kg/injection, schedule: Q01DX001 (ip), vehicle: carboxymethylcellulose (CMC) 102 % of control

Cc1cccc(C(=O)NO)c1O
inactive: [1] 101 % of control | [2] 98 % of control

Cc1ccccc1N1CCN(c2ccccc2C)C1=C1N(c2ccccc2C)CCN1c1ccccc1C
inactive: dose: 100.0 mg/kg/injection, schedule: Q04DX002 (ip), vehicle: DMSO 103 % of control | dose: 200.0 mg/kg/injection, schedule: Q04DX002 (ip), vehicle: DMSO 98 % of control

O=C(NC(=S)Nc1ccccc1C(F)(F)F)c1ccccc1F
inactive: [11] 98 % of control and 103 % of control | [8] 105 % of control and 110 % of control | [13] 93 % of control | [12] 98 % of control and 111 % of control | [9] 105 % of control and 90 % of control | [14] 90 % of control | [15] 94 % of control and 108 % of control | [10] 94 % of control and 113 % of control | [16] 91 % of control

Cc1ccc(-n2c(=O)c(N=Nc3ccc(Br)cc3)c(O)n(-c3ccccc3Cl)c2=S)cc1
inactive: dose: 37.5 mg/kg/injection, schedule: Q01DX001 (ip), vehicle: Klucel (hydroxypropylcellulose) (HPC) 107 % of control | dose: 75.0 mg/kg/injection, schedule: Q01DX001 (ip), vehicle: Klucel (hydroxypropylcellulose) (HPC) 110 % of control | dose: 150.0 mg/kg/injection, schedule: Q01DX001 (ip), vehicle: Klucel (hydroxypropylcellulose) (HPC) 104 % of control

Source: PubChem BioAssay AID248 (DTP/NCI, 2004)
